Data: ChEMBL document CHEMBL4406824, “Phenolic N-monosubstituted carbamates: Antitubercular and toxicity evaluation of multi-targeting compounds” (Eur J Med Chem, 2019)
pIC50: −log10 of the molar value. ≈ marks a conversion by molar mass, not a printed value.

Key:
[1] = system: Mycobacterium kansasii; test: Antimycobacterial activity against Mycobacterium kansasii 6509/96 after 21 days; assay type: functional; settings: 6509/96, 504 h
[2] = system: Mycolicibacterium smegmatis; test: Antimycobacterial activity against Mycobacterium smegmatis DSM 43465 after 120 hr by resazurin dye based microdilution method; assay type: functional; settings: DSM 43465, 120 h
[3] = system: Mycobacterium kansasii; test: Antimycobacterial activity against Mycobacterium kansasii 235/80 after 7 days; assay type: functional; settings: 235/80, 168 h
[4] = system: Mycobacterium kansasii; test: Potency index, ratio of p-aminosalicylic acid MIC to compound MIC for antimycobacterial activity against Mycobacterium kansasii 235/80; assay type: functional
[5] = system: Mycobacterium kansasii; test: Antimycobacterial activity against Mycobacterium kansasii 6509/96 after 14 days; assay type: functional; settings: 6509/96, 336 h
[6] = system: Mycobacterium kansasii; test: Antimycobacterial activity against Mycobacterium kansasii 235/80 after 14 days; assay type: functional; settings: 235/80, 336 h
[7] = in vitro; settings: human, HepG2 cells
Description: Selectivity index, ratio of IC50 for human HepG2 cells to MIC for antimycobacterial activity against Mycobacterium tuberculosis H37Rv

[8] = system: Mycobacterium avium; test: Antimycobacterial activity against Mycobacterium avium 330/88 after 21 days; assay type: functional; settings: 330/88, 504 h
[9] = system: Mycobacterium tuberculosis; assay type: functional, H37Rv 331/88; design: reference not given here
[10] = system: Mycobacterium avium; test: Antimycobacterial activity against Mycobacterium avium 330/88 after 14 days; assay type: functional; settings: 330/88, 336 h
[11] = system: Mycobacterium kansasii; test: Antimycobacterial activity against Mycobacterium kansasii 235/80 after 21 days; assay type: functional; settings: 235/80, 504 h
[12] = system: Mycobacterium kansasii; test: Antimycobacterial activity against Mycobacterium kansasii 6509/96 after 7 days; assay type: functional; settings: 6509/96, 168 h
[13] = system: Mycobacterium kansasii; test: Potency index, ratio of p-aminosalicylic acid MIC to compound MIC for antimycobacterial activity against Mycobacterium kansasii 6509/96; assay type: functional
[14] = system: HepG2; test: Cytotoxicity against human HepG2 cells assessed as reduction in cell viability after overnight incubation by MTT assay; assay type: cell-based
[15] = system: Mycobacterium tuberculosis; assay type: functional; settings: H37Rv 331/88, 336 h
[16] = system: Mycobacterium tuberculosis H37Rv; test: Inhibition of recombinant Mycobacterium tuberculosis H37Rv ICL1 expressed in Escherichia coli BL21 (DE3) cells at 10 uM using (+)-potassium Ds-threo-isocitrate as substrate by glyoxylate phenyl hydrazone formation assay relative to control
[17] = system: Mycobacterium tuberculosis; assay type: functional; settings: H37Rv 331/88, 504 h
[18] = system: HepG2; test: Cytostatic activity against human HepG2 cells preincubated for overnight in serum free medium followed by compound wash out and further incubated for 72 hrs in presence of serum by MTT assay; assay type: ADME, cell-based
[19] = system: Mycolicibacterium aurum; test: Antimycobacterial activity against Mycobacterium aurum DSM 43999 after 72 hr by resazurin dye based microdilution method; assay type: functional; settings: DSM 43999, 72 h
[20] = system: Mycobacterium tuberculosis; test: Antimycobacterial activity against Mycobacterium tuberculosis H37Ra ITM-M006710 after 48 hr by resazurin dye based microdilution method; assay type: functional; settings: H37Ra ITM-M006710, 48 h

In the case of O=C(NC12CC3CC(CC(C3)C1)C2)Oc1ccc(Cl)cc1C(=O)Nc1ccc(Br)cc1, the MIC [1] was 8 µM (≈ 4.03 µg/mL), the MIC [2] was 3.12 µg/mL (≈ 6.2 µM) and the MIC [3] was 4 µM (≈ 2.02 µg/mL). The Ratio [4] was greater than 250, the MIC [5] was 8 µM (≈ 4.03 µg/mL) and the MIC [6] was 8 µM (≈ 4.03 µg/mL). For the same molecule, the selectivity ratio [7] was 0.5, the MIC [8] was 8 µM (≈ 4.03 µg/mL) and the Ratio [9] was greater than 125. It also gave an MIC [10] of 8 µM (≈ 4.03 µg/mL), an MIC [11] of 8 µM (≈ 4.03 µg/mL) and an MIC [12] of 4 µM (≈ 2.02 µg/mL). For the same molecule, the Ratio [13] was greater than 250, the pIC50 [14] was 5.38 and the MIC [15] was 8 µM (≈ 4.03 µg/mL). For the same molecule, the inhibition [16] was 18%, the MIC [17] was 8 µM (≈ 4.03 µg/mL) and the pIC50 [18] was 5.36. It also gave an MIC [19] of 1.56 µg/mL (≈ 3.1 µM) and an MIC [20] of 1.56 µg/mL (≈ 3.1 µM).
In the case of O=C(NCc1ccccc1)Oc1ccc(Cl)cc1C(=O)Nc1ccc(F)cc1, the MIC [1] was 32 µM (≈ 12.8 µg/mL), the MIC [2] was 3.12 µg/mL (≈ 7.84 µM) and the MIC [3] was 16 µM (≈ 6.38 µg/mL). The Ratio [4] was greater than 250, the MIC [5] was 32 µM (≈ 12.8 µg/mL) and the MIC [6] was 32 µM (≈ 12.8 µg/mL). It also gave a selectivity ratio [7] greater than 7.8, an MIC [8] of 62.5 µM (≈ 24.9 µg/mL) and a Ratio [9] greater than 125. The MIC [10] was 62.5 µM (≈ 24.9 µg/mL), the MIC [11] was 32 µM (≈ 12.8 µg/mL) and the MIC [12] was 16 µM (≈ 6.38 µg/mL). It also gave a Ratio [13] greater than 250, a pIC50 [14] of less than 3.90 and an MIC [15] of 8 µM (≈ 3.19 µg/mL). For the same molecule, the inhibition [16] was 15%, the MIC [17] was 16 µM (≈ 6.38 µg/mL) and the pIC50 [18] was 4.47. It also gave an MIC [19] of 3.12 µg/mL (≈ 7.84 µM) and an MIC [20] of 3.12 µg/mL (≈ 7.84 µM).
For O=C(NC12CC3CC(CC(C3)C1)C2)Oc1ccc(Cl)cc1, the MIC [1] was 125 µM (≈ 38.2 µg/mL), the MIC [2] was no less than 125 µg/mL and the MIC [3] was 125 µM (≈ 38.2 µg/mL). The MIC [5] was 125 µM (≈ 38.2 µg/mL), the MIC [6] was 125 µM (≈ 38.2 µg/mL) and the selectivity ratio [7] was greater than 1. It also gave an MIC [8] of 250 µM (≈ 76.5 µg/mL), an MIC [10] of 125 µM (≈ 38.2 µg/mL) and an MIC [11] of 125 µM (≈ 38.2 µg/mL). It also gave an MIC [12] of 125 µM (≈ 38.2 µg/mL), a pIC50 [14] of less than 3.90 and an MIC [15] of 62.5 µM (≈ 19.1 µg/mL). It also gave an inhibition [16] of 13%, an MIC [17] of 125 µM (≈ 38.2 µg/mL) and a pIC50 [18] of less than 3.60. For the same molecule, the MIC [19] was no less than 125 µg/mL and the MIC [20] was 62.5 µg/mL (≈ 204 µM).
O=C(Nc1ccccc1)Oc1ccc(Cl)cc1C(=O)Nc1ccc(F)cc1 gave an MIC [1] of 16 µM (≈ 6.16 µg/mL), an MIC [2] of 1.98 µg/mL (≈ 5.15 µM) and an MIC [3] of 8 µM (≈ 3.08 µg/mL). It also gave a Ratio [4] greater than 250, an MIC [5] of 16 µM (≈ 6.16 µg/mL) and an MIC [6] of 16 µM (≈ 6.16 µg/mL). The selectivity ratio [7] was greater than 2.5, the MIC [8] was 32 µM (≈ 12.3 µg/mL) and the Ratio [9] was greater than 125. The MIC [10] was 32 µM (≈ 12.3 µg/mL), the MIC [11] was 32 µM (≈ 12.3 µg/mL) and the MIC [12] was 8 µM (≈ 3.08 µg/mL). For the same molecule, the Ratio [13] was greater than 250, the pIC50 [14] was less than 4.70 and the MIC [15] was 4 µM (≈ 1.54 µg/mL). The inhibition [16] was 16%, the MIC [17] was 8 µM (≈ 3.08 µg/mL) and the pIC50 [18] was 5.49. It also gave an MIC [19] of 1.98 µg/mL (≈ 5.15 µM) and an MIC [20] of 3.12 µg/mL (≈ 8.12 µM).
With O=C(NCCc1ccccc1)Oc1ccc(Cl)cc1C(=O)Nc1ccc(F)cc1 the MIC [1] was 16 µM (≈ 6.61 µg/mL), the MIC [2] was 3.12 µg/mL (≈ 7.57 µM) and the MIC [3] was 8 µM (≈ 3.3 µg/mL). It also gave a Ratio [4] greater than 250, an MIC [5] of 16 µM (≈ 6.61 µg/mL) and an MIC [6] of 16 µM (≈ 6.61 µg/mL). It also gave a selectivity ratio [7] of 10.4, an MIC [8] of 32 µM (≈ 13.2 µg/mL) and a Ratio [9] greater than 125. For the same molecule, the MIC [10] was 32 µM (≈ 13.2 µg/mL), the MIC [11] was 16 µM (≈ 6.61 µg/mL) and the MIC [12] was 8 µM (≈ 3.3 µg/mL). For the same molecule, the Ratio [13] was greater than 250, the pIC50 [14] was 4.38 and the MIC [15] was 4 µM (≈ 1.65 µg/mL). For the same molecule, the inhibition [16] was 15%, the MIC [17] was 4 µM (≈ 1.65 µg/mL) and the pIC50 [18] was 5.12. For the same molecule, the MIC [19] was 3.12 µg/mL (≈ 7.57 µM) and the MIC [20] was 3.12 µg/mL (≈ 7.57 µM).
